Substitutions are numbered along the chain they refer to. Where two headings read alike, the source gives them in different places.

One assay concerns the target T1, human M1 (Homo sapiens, UniProt P11229).
T1 construct: expressed in transfected cells; host or cells: CHO cells
T1 sequence (P11229 1-460): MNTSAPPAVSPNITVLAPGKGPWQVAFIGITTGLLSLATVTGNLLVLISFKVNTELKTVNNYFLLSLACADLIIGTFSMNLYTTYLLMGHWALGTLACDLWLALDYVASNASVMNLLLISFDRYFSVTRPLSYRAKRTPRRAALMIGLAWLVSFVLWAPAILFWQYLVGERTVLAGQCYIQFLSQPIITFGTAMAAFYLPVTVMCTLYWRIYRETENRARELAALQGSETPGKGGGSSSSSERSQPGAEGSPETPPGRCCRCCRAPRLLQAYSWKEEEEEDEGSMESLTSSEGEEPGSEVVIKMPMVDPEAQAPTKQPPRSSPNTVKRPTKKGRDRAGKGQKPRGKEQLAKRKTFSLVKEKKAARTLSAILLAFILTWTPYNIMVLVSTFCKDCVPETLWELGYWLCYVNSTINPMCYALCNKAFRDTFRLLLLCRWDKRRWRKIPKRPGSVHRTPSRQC
As to the kind of experiment: M1 PAM assay (FLIPR intracellular calcium), human M1. Type of assay: cell-based. In a few lines:
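CHO cells expressing M1, Fluo-4AM-loaded, in HEPES/probenecid HBSS pH 7.4, 1% DMSO final. Compounds pre-incubated 2 min for agonist activity versus 30 nM acetylcholine control. For PAM activity, acetylcholine EC20 added after the 2 min pre-incubation, then 2 min more before FLIPR intracellular Ca2+ read.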
In general terms: Calcium assays in cells follow changes in intracellular calcium, usually with a dye or a luminescent sensor.

The next assay has as its target T2, ratM1 (Rattus norvegicus, UniProt P08482).
T2 construct: expressed in transfected cells; host or cells: CHO cells (stated generally for the assay, not specifically for rat M1)
T2 sequence (P08482 1-460): T1 sequence (P11229 1-460) with A5V, T254S, P309S, R320K, A337G, I413V
As to the kind of experiment: M1 PAM assay (FLIPR intracellular calcium), rat M1. Type of assay: cell-based.

Setting [1] is: CHO human M1 cells, FLIPR Ca2+, with EC20 of acetylcholine, first value of the cell, read-out: hM1 EC50.
[2] abbreviates: rat M1, FLIPR Ca2+, second value of the cell, read-out: ratM1 EC50.

What is called EC50 is the concentration that produces a half-maximal response. With `CNC(=O)c1ccc(Cn2cc(C(=O)NC3(C)CCOCC3)c3c(F)cccc32)cc1` [Example 123, 4-fluoro-1-[[4-(methylcarbamoyl)phenyl]methyl]-N-(4-methyloxan-4-yl)indole-3-carboxamide], the EC50 on human M1 (setting [1]) turned out to be 0.364 µM; on ratM1 (setting [2]), 0.68 µM.

Consider `CNC(=O)c1ccc(Cn2cc(C(=O)NC3CCSCC3)c3c(F)cccc32)cc1` [Example 124, 4-fluoro-1-[[4-(methylcarbamoyl)phenyl]methyl]-N-(thian-4-yl)indole-3-carboxamide], for which the EC50 at human M1 (setting [1]) is 0.011 µM; on ratM1 (setting [2]), 0.024 µM.

On to `CNC(=O)c1ccc(Cn2cc(C(=O)NC3CCS(=O)(=O)CC3)c3c(F)cccc32)cc1` [Example 125, N-(1,1-dioxothian-4-yl)-4-fluoro-1-[[4-(methylcarbamoyl)phenyl]methyl]indole-3-carboxamide], for which the EC50 at human M1 (setting [1]) stood at 0.166 µM; at ratM1 (setting [2]) it was 0.623 µM.

`CNC(=O)c1ccc(Cn2cc(C(=O)NC3CCOCC3C)c3c(F)cccc32)cc1` (centres unmarked) [Example 126, 4-fluoro-1-[[4-(methylcarbamoyl)phenyl]methyl]-N-(3-methyloxan-4-yl)indole-3-carboxamide]: the EC50 on human M1 (setting [1]) was found to be 0.019 µM; on ratM1 (setting [2]) it was 0.051 µM.

On to `CNC(=O)c1ccc(Cn2cc(C(=O)NC3CCOC(C)C3)c3c(F)cccc32)cc1` (centres unmarked) [Example 127, 4-fluoro-1-[[4-(methylcarbamoyl)phenyl]methyl]-N-(2-methyloxan-4-yl)indole-3-carboxamide], for which the EC50 at human M1 (setting [1]) stood at 0.019 µM; at ratM1 (setting [2]), 0.026 µM.

Consider `CCc1ccc(F)c2c(C(=O)NC3CCOCC3)cn(Cc3ccc4c(cnn4C)c3)c12` [Example 128, 7-ethyl-4-fluoro-1-((1-methyl-1H-indazol-5-yl)methyl)-N-(tetrahydro-2H-pyran-4-yl)-1H-indole-3-carboxamide], for which the EC50 was 0.289 µM at human M1 and 1.24 µM on ratM1.

For `CNC(=O)c1ccc(Cn2cc(C(=O)NC3CCCCC3F)c3c(F)cccc32)cc1F` (centres unmarked) [Example 129, 4-fluoro-1-(3-fluoro-4-(methylcarbamoyl)benzyl)-N-(2-fluorocyclohexyl)-1H-indole-3-carboxamide], the values for the EC50 at human M1 (setting [1]) and at ratM1 (setting [2]) were 0.027 µM and 0.066 µM, respectively.

Take `CNC(=O)c1ccc(Cn2cc(C(=O)NC3CCCC(F)(F)C3)c3c(F)cccc32)cc1F` (centres unmarked) [Example 130, N-(3,3-difluorocyclohexyl)-4-fluoro-1-(3-fluoro-4-(methylcarbamoyl)benzyl)-1H-indole-3-carboxamide]: the EC50 at human M1 (setting [1]) came out at 0.034 µM; at ratM1 (setting [2]) it was 0.058 µM.

In the case of `O=C(N[C@H]1CCCC[C@@H]1O)c1cn(Cc2ccc(-c3ccccc3)nc2)c2cccc(F)c12` [Example 131, 4-fluoro-N-((1S,2S)-2-hydroxycyclohexyl)-1-((6-phenylpyridin-3-yl)methyl)-1H-indole-3-carboxamide], the EC50 was 0.036 µM on human M1 (setting [1]) and 0.152 µM at ratM1 (setting [2]).

For the molecule `CNC(=O)c1ccc(Cn2cc(C(=O)NC3CCOCC3)c3c(F)cccc32)cc1` [Example 132, 4-fluoro-1-(4-(methylcarbamoyl)benzyl)-N-(tetrahydro-2H-pyran-4-yl)-1H-indole-3-carboxamide], the EC50 on human M1 (setting [1]) is 0.003 µM; at ratM1 (setting [2]) it was 0.022 µM.

In the case of `Cc1ccc(F)c2c(C(=O)NC3CCOCC3)cn(Cc3ccc(-c4cnn(C)c4)cc3F)c12` [Example 133, 4-fluoro-1-(2-fluoro-4-(1-methyl-1H-pyrazol-4-yl)benzyl)-7-methyl-N-(tetrahydro-2H-pyran-4-yl)-1H-indole-3-carboxamide], the figures for the EC50 on human M1 (setting [1]) and on ratM1 (setting [2]) were 0.048 µM and 0.084 µM, respectively.

On to `Cc1ccc(F)c2c(C(=O)NC3CCOCC3)cn(Cc3ccc4c(cnn4C)c3)c12` [Example 134, 4-fluoro-7-methyl-1-((1-methyl-1H-indazol-5-yl)methyl)-N-(tetrahydro-2H-pyran-4-yl)-1H-indole-3-carboxamide], for which the EC50 at human M1 turned out to be 0.025 µM; at ratM1, 0.076 µM.

Take `O=C(N[C@H]1CCCC[C@@H]1O)c1cn(Cc2ccc(-c3ncccn3)cc2)c2cccc(F)c12` [Example 135, 4-fluoro-N-((1S,2S)-2-hydroxycyclohexyl)-1-(4-(pyrimidin-2-yl)benzyl)-1H-indole-3-carboxamide]: the EC50 at human M1 (setting [1]) is 0.097 µM; at ratM1 (setting [2]), 0.384 µM.

On to `O=C(N[C@H]1CCOC[C@@H]1O)c1cn(CC2CCN(c3ccccn3)CC2)c2cccc(F)c12` [Example 136, 4-fluoro-N-((3R,4S)-3-hydroxytetrahydro-2H-pyran-4-yl)-1-((1-(pyridin-2-yl)piperidin-4-yl)methyl)-1H-indole-3-carboxamide], for which the values for the EC50 at human M1 (setting [1]) and on ratM1 (setting [2]) were 0.134 µM and 0.428 µM, respectively.

As to `O=C(N[C@H]1CCCC[C@@H]1O)c1cn(Cc2ccc(-c3cnco3)cc2)c2cccc(F)c12` [Example 137, 4-fluoro-N-((1S,2S)-2-hydroxycyclohexyl)-1-(4-(oxazol-5-yl)benzyl)-1H-indole-3-carboxamide], the results for the EC50 at human M1 (setting [1]) and on ratM1 (setting [2]) were 0.009 µM and 0.034 µM, respectively.

On to `O=C(N[C@H]1CCCC[C@@H]1O)c1cn(Cc2ccc(-c3ccno3)cc2)c2cccc(F)c12` [Example 138, 4-fluoro-N-((1S,2S)-2-hydroxycyclohexyl)-1-(4-(isoxazol-5-yl)benzyl)-1H-indole-3-carboxamide], for which the results for the EC50 on human M1 (setting [1]) and at ratM1 (setting [2]) were 0.016 µM and 0.038 µM, respectively.

Take `O=C(N[C@H]1CCCC[C@@H]1O)c1cn(Cc2cnc(-c3ccccc3)nc2)c2cccc(F)c12` [Example 139, 4-fluoro-N-((1S,2S)-2-hydroxycyclohexyl)-1-((2-phenylpyrimidin-5-yl)methyl)-1H-indole-3-carboxamide]: the figures for the EC50 on human M1 (setting [1]) and on ratM1 (setting [2]) were 0.423 µM and 2.63 µM, respectively.

Regarding `O=C(N[C@H]1CCCC[C@@H]1O)c1cn(Cc2ccc(-c3ccccc3)cn2)c2cccc(F)c12` [Example 140], the figures for the EC50 on human M1 (setting [1]) and on ratM1 (setting [2]) were 0.103 µM and 0.518 µM, respectively.

For the molecule `O=C(N[C@H]1CCCC[C@@H]1O)c1cn(Cc2ccc(-c3nccs3)cn2)c2cccc(F)c12` [Example 141, 4-fluoro-N-((1S,2S)-2-hydroxycyclohexyl)-1-((5-(thiazol-2-yl)pyridin-2-yl)methyl)-1H-indole-3-carboxamide], the figures for the EC50 at human M1 (setting [1]) and at ratM1 (setting [2]) were 0.155 µM and 0.453 µM, respectively.

For the molecule `O=C(N[C@H]1CCCC[C@@H]1O)c1cn(Cc2ccc(-n3ccnc3)nc2)c2cccc(F)c12` [Example 142, 1-((6-(1H-imidazol-1-yl)pyridin-3-yl)methyl)-4-fluoro-N-((1S,2S)-2-hydroxycyclohexyl)-1H-indole-3-carboxamide], the EC50 at human M1 (setting [1]) turned out to be 0.075 µM; at ratM1 (setting [2]), 0.21 µM.

For `O=C(N[C@H]1CCCC[C@@H]1O)c1cn(CC2CCN(c3ccncn3)CC2)c2cccc(F)c12` [Example 143, 4-fluoro-N-((1S,2S)-2-hydroxycyclohexyl)-1-((1-(pyrimidin-4-yl)piperidin-4-yl)methyl)-1H-indole-3-carboxamide], the EC50 was determined as 0.409 µM on human M1 (setting [1]) and 1.07 µM at ratM1 (setting [2]).

For the molecule `O=C(N[C@H]1CCCC[C@@H]1O)c1cn(Cc2ccn3ccnc3c2)c2cccc(F)c12` [Example 144, 4-fluoro-N-((1S,2S)-2-hydroxycyclohexyl)-1-(imidazo[1,2-a]pyridin-7-ylmethyl)-1H-indole-3-carboxamide], the EC50 at human M1 was 0.07 µM; at ratM1, 0.172 µM.

In the case of `O=C(N[C@H]1CCCC[C@@H]1O)c1cn(Cc2ccc3nccn3c2)c2cccc(F)c12` [Example 145, 4-fluoro-N-((1S,2S)-2-hydroxycyclohexyl)-1-(imidazo[1,2-a]pyridin-6-ylmethyl)-1H-indole-3-carboxamide], the EC50 is 0.017 µM on human M1 and 0.036 µM at ratM1.

`O=C(NC1CC1)c1ccc(Cn2cc(C(=O)N[C@H]3CCCC[C@@H]3O)c3c(F)cccc32)cc1` [Example 146, 1-(4-(cyclopropylcarbamoyl)benzyl)-4-fluoro-N-((1S,2S)-2-hydroxycyclohexyl)-1H-indole-3-carboxamide]: the EC50 on human M1 (setting [1]) is 0.002 µM; on ratM1 (setting [2]) it was 0.005 µM.

As for `CNC(=O)c1ccc(Cn2cc(C(=O)NC3CCOCC3)c3c(F)cccc32)cn1` [Example 147, 4-fluoro-1-((6-(methylcarbamoyl)pyridin-3-yl)methyl)-N-(tetrahydro-2H-pyran-4-yl)-1H-indole-3-carboxamide], the EC50 on human M1 (setting [1]) was determined as 0.197 µM; on ratM1 (setting [2]), 0.323 µM.

The record behind these values is US9708259B2 (Hoffmann-La Roche Inc., priority 2013, dated 2017).
